Experimental data as given in patent US8927533B2, “Thio derivatives bearing lactams as potent HDAC inhibitors and their uses as medicaments” (SIGMA-TAU Industrie Farmaceutiche Riunite S.p.A., priority 2011, dated 2015).

What was measured:
[1] = system: NCI-H460 non-small cell lung carcinoma cells; assay: Cytotoxicity, sulphorodamine B, H460; details: Homo sapiens, NCI-H460, read-out: H460 cell line IC50 (μM)
Protocol: The plates were incubated for 24 h at 37° C., after which they were washed 3 times by removal of the supernatant and addition of PBS. The plates were then incubated for further 48 h at 37° C. 200 μl PBS and 50 μl of cold 80% TCA were added and the plates were incubated on ice for at least 1 h. TCA was removed and the plates were washed 3 times by immersion in distilled-water. They were then dried on paper at 40° C. for 5 min. 200 μl of 0.4% sulphorodamine B in 1% acetic acid were added. The plates were incubated at room temperature for further 30 min. Sulphorodamine B was removed, and the plates were washed 3 times by immersion in 1% acetic acid and were dried on paper and at 40° C. for 5 min. Then 200 μl Tris 10 mM were added. The plates were kept under magnetic stirring for 20 min. Cell survival was determined by means of optical density by a Multiskan spectrofluorimeter at 540 nm. The amount of cells killed was calculated as the percentage decrease in sulphorodamine B binding compared to control cultures.

[2] = system: HCT116 colon cancer cells; assay: Cytotoxicity, sulphorodamine B, HCT116; details: Homo sapiens, HCT-116, read-out: HCT116 cell line IC50 (μM)
NCI-H460 NSCLC = assay: Antitumour activity, NCI-H460 xenograft (Example 48)
Protocol: (§2) The tested derivatives were administered as a suspension in PBS/DMSO/Cremophor EL (Sigma): 85/10/5 (volume percentage). The antitumour activity was determined by measuring tumour diameters with a Vernier calliper according to the Formula TV=d^2×D/2
(§3) where d and D are the shortest and longest diameters, respectively.
(§4) When tumours reached a volume of about 1000 mm^3, mice were sacrificed by cervical dislocation. The efficacy of the drug was assessed as the tumour volume inhibition according to the Formula reported underneath:
(§5) Body weight recording was carried out to evaluate body weight loss as calculated in the equation underneath:
(§6) Wherein BW day x corresponds to the mean weight at day x of the experiment meanwhile BW day 1 corresponds to the mean weight at the first day of the experiment.

HCT116 colon cancer = assay: Antitumour activity, HCT116 xenograft, oral (Example 49); assay type: in vivo, mice; details: 100 mg/10 ml/kg p.o., PEG200/DMSO/Cremophor EL
Source text: (§1) The experiment of example 48 was repeated with another compound on mice animal model developing HCT116 colon cancer as described above or A2780 ovarian cancer, and administering the drugs solubilised in orally in PEG200/DMSO/Cremophor EL (Sigma): 85/10/5 (volume percentage).

[3] = system: K562 chronic myeloid leukemia cells; assay: Cytotoxicity extended panel, K562; assay type: cell-based; details: Homo sapiens, suspension cells, 72 h
Protocol: Cells were seeded in 96-well tissue culture plates at approximately 10% confluence. They were allowed to attach and recover for at least 24 h. Compounds of the present invention were then added to each well at various concentrations in order to define cell survival inhibition IC50. The plates were incubated for 72 h at 37° C., after which time they were washed 3 times by removal of the supernatant. 200 μl of PBS and 50 μl of cold 80% TCA were added and the plates were incubated on ice for at least 1 h. TCA was removed and the plates were washed 3 times by immersion in distilled water. They were then dried on paper at 40° C. for 5 min. 200 μl of 0.4% sulphorodamine B in 1% acetic acid were added. The plates were incubated at room temperature for further 30 min. Sulphorodamine B was removed, and the plates were washed 3 times by immersion in 1% acetic acid and were dried on paper at 40° C. for 5 min. Then 200 μl Tris 10 mM were added. The plates were kept under magnetic stirring for 20 min. Cell survival was determined by means of optical density by a Multiskan spectrofluorimeter at 540 nm. The amount of cells killed was calculated as the percentage decrease in sulphorodamine B binding compared to control cultures. The IC50 values (reported in Table 5) were calculated with the “ALLFIT” program. […]

[4] = system: HCT116 colon cancer cells; assay: Antitumour activity, HCT116 xenograft (Example 48); assay type: in vivo, CD1 nude mice; details: 100 mg/10 ml/kg p.o., qd×5/w×3w
Protocol: as §2, §3, §4, §5, §6

[5] = system: H929 multiple myeloma cells; assay: Antitumour activity, H929 xenograft (Example 48); assay type: in vivo, CD1 nude mice; details: 100 mg/10 ml/kg i.p., qd×5/w×3w
Protocol: as §2, §3, §4, §5, §6

A2780 ovarian cancer = assay: Antitumour activity, A2780 xenograft, oral (Example 49); assay type: in vivo, mice; details: 100 mg/10 ml/kg p.o., PEG200/DMSO/Cremophor EL
Source text: as §1

[6] = 100 mg/10 ml/kg i.p., qd×5/w×3w

Question: With CC(=O)SCCCCC[C@H](NC(=O)[C@H]1C(=O)NC[C@@H]1c1ccccc1)C(=O)Nc1ccccc1 (relative stereo) [Example 19, Thioacetic acid S—{(S)-6-[((3R*,4S*)-2-oxo-4-phenyl-pyrrolidine-3-carbonyl)-amino]-6-phenylcarbamoyl-hexyl}ester] as the molecule, how does the IC50 [1] read?
Answer: Its IC50 is less than 0.5 µM.

Question: And the IC50 [2]?
Answer: Its IC50 is less than 0.5 µM.

Question: With CC(=O)SCCCCC[C@H](NC(=O)[C@H]1C(=O)NC[C@H]1c1ccccc1)C(=O)Nc1ccccc1 (relative stereo) [Example 20, Thioacetic acid S—{(S)-6-[((3R*,4R*)-2-oxo-4-phenyl-pyrrolidine-3-carbonyl)-amino]-6-phenylcarbamoyl-hexyl}ester] as the molecule, how does the IC50 [2] read?
Answer: The IC50 was 0.5 to 1 µM.

Question: How did the IC50 [2] turn out when CC(=O)SCCCCC[C@H](NC(=O)C1CCCNC1=O)C(=O)Nc1ccccc1 (stereo in doubt) [Example 22, Thioacetic acid S—{(S)-6-[(R*)-(2-oxo-piperidine-3-carbonyl)-amino]-6-phenylcarbamoyl-hexyl}ester] was run?
Answer: The IC50 was 1 to 10 µM.

Question: Which TVI % (NCI-H460 NSCLC; 2 mg/10 ml/kg i.p., q4d/w×3w) does the source give for N.N.[Cl][Pt][Cl] [Cisplatin] here?
Answer: The TVI % was 56%.

Question: Which BWL % (HCT116 colon cancer) does the source give for CC(=O)SCCCCCCC(=O)Nc1ccccc1 [Compound A, Thioacetic acid S-(6-phenylcarbamoyl-hexyl)ester] here?
Answer: Its BWL % is 0%.

Question: And the TVI % (HCT116 colon cancer)?
Answer: The TVI % was 11%.

Question: CC(=O)SCCCCC[C@H](NC(=O)[C@@H]1CC(=O)N1)C(=O)Nc1ccccc1 [Example 1, Thioacetic acid S—{(S)-6-[((S)-4-oxo-azetidine-2-carbonyl)-amino]-6-phenylcarbamoyl-hexyl}ester] was tested. Which IC50 [1] did it give?
Answer: Its IC50 is less than 0.5 µM.

Question: How did the IC50 [1] turn out when CC(=O)SCCCCC[C@H](NC(=O)[C@@H]1CCCC(=O)N1)C(=O)NCCc1cccc(C)c1 [Example 5, Thioacetic acid S—[(S)-6-[((S)-6-oxo-piperidine-2-carbonyl)-amino]-6-(2-m-tolyl-ethylcarbamoyl)-hexyl]ester] was run?
Answer: The IC50 was 1 to 10 µM.

Question: Which IC50 [1] does the source give for CC(=O)SCCCCC[C@H](NC(=O)[C@H]1CCC(=O)N1C)C(=O)Nc1cccc(C)c1 [Example 6, Thioacetic acid S—{(S)-6-[((R)-1-methyl-5-oxo-pyrrolidine-2-carbonyl)-amino]-6-m-tolylcarbamoyl-hexyl}ester] here?
Answer: The IC50 was less than 0.5 µM.

Question: How did the IC50 [1] turn out when CC(=O)SCCCCC[C@H](NC(=O)[C@@H]1CCC(=O)N1)C(=O)Nc1cccc(C)c1 [Example 7, Thioacetic acid S—{(S)-6-[((S)-5-oxo-pyrrolidine-2-carbonyl)-amino]-6-m-tolylcarbamoyl-hexyl}ester] was run?
Answer: Its IC50 is less than 0.5 µM.

Question: With CC(=O)SCCCCC[C@H](NC(=O)[C@H]1CCC(=O)N1)C(=O)Nc1cccc(C)c1 [Example 8, Thioacetic acid S—{(S)-6-[((R)-5-oxo-pyrrolidine-2-carbonyl)-amino]-6-m-tolylcarbamoyl-hexyl}ester] as the molecule, how does the IC50 [1] read?
Answer: Its IC50 is less than 0.5 µM.

Question: How did the IC50 [1] turn out when CC(=O)SCCCCC[C@H](NC(=O)[C@@H]1CC=CC(=O)N1)C(=O)Nc1ccccc1 [Example 10, Thioacetic acid S—{(S)-6-[((S)-6-oxo-1,2,3,6-tetrahydro-pyridine-2-carbonyl)-amino]-6-phenylcarbamoyl-hexyl}ester] was run?
Answer: The IC50 was less than 0.5 µM.

Question: With CC(=O)SCCCCC[C@H](NC(=O)[C@@H]1CCC(=O)N1)C(=O)Nc1ccccc1 [Example 11, Thioacetic acid S—{(S)-6-[((S)-5-oxo-pyrrolidine-2-carbonyl)-amino]-6-phenylcarbamoyl-hexyl}ester] as the molecule, how does the IC50 [1] read?
Answer: Its IC50 is less than 0.5 µM.

Question: Which IC50 [1] does the source give for CC(=O)SCCCCC[C@H](NC(=O)[C@H]1CCCC(=O)N1)C(=O)Nc1ccccc1 [Example 13, Thioacetic acid S—{(S)-6-[((R)-6-oxo-piperidine-2-carbonyl)-amino]-6-phenylcarbamoyl-hexyl}ester] here?
Answer: Its IC50 is less than 0.5 µM.

Question: CC(=O)SCCCCC[C@H](NC(=O)[C@@H]1CCCC(=O)N1)C(=O)Nc1ccc(C)cc1 [Example 15, Thioacetic acid S—{(S)-6-[((S)-6-oxo-piperidine-2-carbonyl)-amino]-6-p-tolylcarbamoyl-hexyl}ester] was tested. Which IC50 [1] did it give?
Answer: The IC50 was less than 0.5 µM.

Question: With CC(=O)SCCCCC[C@H](NC(=O)[C@@H]1CCCC(=O)N1)C(=O)Nc1cccc(C)c1 [Example 16, Thioacetic acid S—{(S)-6-[((S)-6-oxo-piperidine-2-carbonyl)-amino]-6-m-tolylcarbamoyl-hexyl}ester] as the molecule, how does the IC50 [1] read?
Answer: Its IC50 is less than 0.5 µM.

Question: CC(=O)SCCCCC[C@H](NC(=O)[C@@H]1CCCC(=O)N1)C(=O)NC1CCCC1 [Example 17, Thioacetic acid S—{(S)-6-[((S)-6-oxo-piperidine-2-carbonyl)-amino]-6-cyclopentylcarbamoyl-hexyl}ester] was tested. Which IC50 [2] did it give?
Answer: The IC50 was 1 to 10 µM.

Question: Which IC50 [1] does the source give for CC(=O)SCCCCC[C@H](NC(=O)[C@H]1CCC(=O)N1)C(=O)Nc1cccc(C(F)(F)F)c1 [Example 18, Thioacetic acid S—[(S)-6-[((R)-5-oxo-pyrrolidine-2-carbonyl)-amino]-6-(3-trifluoromethyl-phenylcarbamoyl)-hexyl]ester] here?
Answer: The IC50 was less than 0.5 µM.

Question: CCOC(=S)OCCCCC[C@H](NC(=O)[C@@H]1CCCC(=O)N1)C(=O)Nc1ccccc1 [Example 41, Thiocarbonic acid ethyl ester {(S)-6-[((S)-6-oxo-piperidine-2-carbonyl)-amino]-6-phenylcarbamoyl-hexyl}ester] was tested. Which IC50 [1] did it give?
Answer: The IC50 was 0.5 to 1 µM.

Question: How did the IC50 [1] turn out when CCOC(=S)OCCCCC[C@H](NC(=O)[C@H]1CCC(=O)N1)C(=O)Nc1ccccc1 [Example 42, Thiocarbonic acid ethyl ester {(S)-6-[((R)-5-oxo-pyrrolidine-2-carbonyl)-amino]-6-phenylcarbamoyl-hexyl}ester] was run?
Answer: Its IC50 is less than 0.5 µM.

Question: For CC(C)C(=O)SCCCCC[C@H](NC(=O)[C@@H]1CCCC(=O)N1)C(=O)Nc1ccccc1 [Example 43, Thioisobutyric acid S—{(S)-6-[((S)-6-oxo-piperidine-2-carbonyl)-amino]-6-phenylcarbamoyl-hexyl}ester], which IC50 [1] is on record?
Answer: Its IC50 is 1 to 10 µM.

Question: What does the source list for O=C(CCCCCCC(=O)Nc1ccccc1)NO [SAHA, suberoylanilide hydroxamic acid, reference compound]?
Answer: IC50 [3]: 0.13 µM; BWL % [4]: 0%; TVI % [4]: 47%; BWL % [5]: 3%; TVI % [5]: 21%; BWL % (HCT116 colon cancer): 1%; TVI % (HCT116 colon cancer): 32%; BWL % (NCI-H460 NSCLC; [6]): 0%; TVI % (NCI-H460 NSCLC; [6]): 27%; BWL % (A2780 ovarian cancer): 4%; TVI % (A2780 ovarian cancer): 53%
